For data set [1] the following is noted: calculated from data in SHRP H-205.2; cited from earlier work.
Data set [2] is described as follows: Freezing point of simple carbohydrates with 15% magnesium chloride. It is filed as physicochemical. The conditions noted are these: 15% MgCl2. As for the experimental part:
There is available commercially a wide range of carbohydrates with varying carbohydrate compositions. An evaluation was conducted using simple sugars, disaccharides and polysaccharides in an attempt to determine the effect of molecular weight and solute concentration upon freezing point.

The nature of data set [3]: SHRP H-205.2 Test Method for Ice Melting of Liquid Deicing Chemicals. To be noted: 25° F. (−4° C.). As for the experimental part:
Fraction E was also examined for ice melting characteristics at 25° F.

Data set [4] deals with Rats. To be noted: cited from earlier work.
For data set [5] the following is noted: aqueous solution.

Read-outs that look alike come from different tables or passages of the source.

Regarding `[Ca+2].[Cl-].[Cl-]` [Ca Cl2, calcium chloride], the “Lbs weight ice melted per lb weight of inorganic salt” value (“Lbs weight ice melted per lb weight” below) in data set [1] is on record as 7.3 Lbs per lb.

For `OC[C@H]1O[C@@H](O[C@H]2[C@H](O)[C@@H](O)C(O)O[C@@H]2CO)[C@H](O)[C@@H](O)[C@H]1O` (some centres unmarked) [Lactose], the “comparison in reducing freezing point” value in data set [2] was “somewhat better than maltose”. As to `[Cl-].[Cl-].[Mg+2]` [Mg Cl2, magnesium chloride], the “Lbs weight ice melted per lb weight” value in data set [3] was determined as 16.9 Lbs per lb. With `CC(=O)[O-].[K+]` [Potassium acetate, potassium acetate], in data set [4], the “Oral LD 50 (Rats)” value was 3250 mg/kg. `[Cl-].[Na+]` [Sodium Chloride, sodium chloride]: the “Lbs weight ice melted per lb weight” value in data set [1] is 7.5 Lbs per lb. In data set [4], the “Oral LD 50 (Rats)” value was 3000 mg/kg. As for `CC(=O)[O-].[Na+]` [Sodium acetate, sodium acetate], in data set [5], the “solids content at the eutectic point” value was found to be 23%. The “Oral LD 50 (Rats)” value in data set [4] is 3550 mg/kg.
